Tests used:
Format in all cases: in vivo
[1] = tested on: barnyardgrass (Echinochloa crus-qalli L.); experiment: Test Example 1: foliar treatment, growth inhibition rate on 14th day; settings: active ingredient amount 31 g/ha, 14th day after application
Method in brief: (§1)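 Visual 0–100% inhibition scoring (100 = complete kill) at 14 days after foliar treatment of soil-grown seedlings at species-specific leaf stages, with the compound sprayed as a wettable powder or emulsifiable concentrate dilution.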

[2] = tested on: redroot pigweed (Amaranthus retroflexus L.); experiment: as above; settings: active ingredient amount 31 g/ha, 14th day after application
Method in brief: as §1

[3] = tested on: italian ryegrass (Lolium multiflorum Lam.); experiment: as above; settings: active ingredient amount 31 g/ha, 14th day after application
Method in brief: as §1

[4] = tested on: corn (Zea mays L.); experiment: as above; settings: active ingredient amount 31 g/ha, 14th day after application
Method in brief: as §1

[5] = tested on: rice (Oryza sativa L.); experiment: as above; settings: active ingredient amount 31 g/ha, 14th day after application
Method in brief: (§2)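 Compounds applied once to leaves of pot-grown plants; wild oat at 0.4–1.2 leaf, foxtail 0.5–3.2, rice 0.2–2.7, soybean primary leaf. Inhibition estimated by eye on day 14.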

[6] = tested on: green foxtail (Setaria viridis L.); experiment: as above; settings: active ingredient amount 31 g/ha, 14th day after application
Method in brief: as §2

[7] = tested on: wheat (Triticum aestivum L.); experiment: as above; settings: active ingredient amount 31 g/ha, 14th day after application
Method in brief: as §1

[8] = tested on: crabgrass (Digitaria sanquinalis L.); experiment: as above; settings: active ingredient amount 31 g/ha, 14th day after application
Method in brief: as §1

[9] = tested on: soybean (Glycine max Merr.); experiment: as above; settings: active ingredient amount 31 g/ha, 14th day after application
Method in brief: as §2

[10] = tested on: wild oat (Avena fatua L.); experiment: as above; settings: active ingredient amount 31 g/ha, 14th day after application
Method in brief: as §2

[11] = tested on: barnyardgrass (Echinochloa crus-qalli L.); experiment: Test Example 2: soil application on the day after sowing, growth inhibition rate on 14th day; settings: active ingredient amount 31 g/ha, 14th day after application
Description: (§3) Upland field soil was put into a 1/300,000 hectare pot, and seeds of various plants (barnyardgrass (Echinochloa crus-qalli L.), crabgrass (Digitaris sanquinalis L.), green foxtail (Setaria viridis L.), redroot pigweed (Amaranthus retroflexus L.), prickly sida (Sida spinosa L.), velvetleaf (Abutilon theophrasti MEDIC.), rice (Oryza sativa L.), corn (Zea mays L.), wheat (Triticum aestivum L.), soybean (Glycine max Merr.)) were sown. On the day after sowing, wettable powders or emulsifiable concentrates of the compounds of the present invention prepared in accordance with a conventional preparation method, were weighed so as to achieve the prescribed active ingredient amounts, and diluted with water in an amount corresponding to 1,000 liters per 1 hectare, followed by soil application by a small sprayer.
(§4) On the 14th day after the application, the state of growth of the respective plants was visually observed, and the herbicidal effect was evaluated by a growth inhibition rate (%) of 0 (equivalent to the non-treated area) to 100 (complete kill).

[12] = tested on: velvetleaf (Abutilon theophrasti MEDIC.); experiment: as above; settings: active ingredient amount 31 g/ha, 14th day after application
Description: as §3, §4

[13] = tested on: corn (Zea mays L.); experiment: as above; settings: active ingredient amount 31 g/ha, 14th day after application
Description: as §3, §4

[14] = tested on: rice (Oryza sativa L.); experiment: as above; settings: active ingredient amount 31 g/ha, 14th day after application
Description: as §3, §4

[15] = tested on: green foxtail (Setaria viridis L.); experiment: as above; settings: active ingredient amount 31 g/ha, 14th day after application
Description: as §3, §4

[16] = tested on: wheat (Triticum aestivum L.); experiment: as above; settings: active ingredient amount 31 g/ha, 14th day after application
Description: as §3, §4

[17] = tested on: soybean (Glycine max Merr.); experiment: as above; settings: active ingredient amount 31 g/ha, 14th day after application
Description: as §3, §4

[18] = tested on: crabgrass (Digitaris sanquinalis L.); experiment: as above; settings: active ingredient amount 31 g/ha, 14th day after application
Description: as §3, §4

[19] = tested on: prickly sida (Sida spinosa L.); experiment: as above; settings: Sida spinosa, active ingredient amount 31 g/ha, 14th day after application
Description: as §3, §4

[20] = visual, 0 = non-treated, 100 = complete kill

Row | Compound | Growth inhibition rate (%) Barnyardgrass [1] [%] | Growth inhibition rate (%) Redroot pigweed [2] [%] | Growth inhibition rate (%) Italian ryegrass [3] [%] | Growth inhibition rate (%) Corn [4] [%] | Growth inhibition rate (%) Rice [5] [%] | Growth inhibition rate (%) Green foxtail [6] [%] | Growth inhibition rate (%) Wheat [7] [%] | Growth inhibition rate (%) Crabgrass [8] [%] | Growth inhibition rate (%) Soybean [9] [%] | Growth inhibition rate (%) Wild oat [10] [%] | other results
1 | CCc1ccc(Oc2nc3cc(Cl)ccc3o2)cc1-c1c(O)c(C)nn(C)c1=O [Compound 2-162] | 100 | 10 | 100 | 90 | 100 | 99 | 99 | 100 | 0 | 100 | Growth inhibition rate (%) Barnyardgrass [11]: 90%; Growth inhibition rate (%) Velvetleaf [12]: 0%; Growth inhibition rate (%) Corn [13]: 0%; Growth inhibition rate (%) Rice [14]: 0%; Growth inhibition rate (%) Green foxtail [15]: 20%; Growth inhibition rate (%) Wheat [16]: 20%; Growth inhibition rate (%) Soybean [17]: 0%; Growth inhibition rate (%) Crabgrass [18]: 20%
2 | Cc1ccc(Sc2ncc(C(F)(F)F)cc2Cl)cc1-c1c(O)c(C)nn(C)c1=O [1-2, 4-(5-((3-chloro-5-(trifluoromethyl)pyridin-2-yl)thio)-2-methylphenyl)-5-hydroxy-2,6-dimethylpyridazin-3(2H)-one] | 100 | 0 | 99 | 95 | 10 | 99 | 20 | 99 | 0 | 95 | inhibition at 31 g/ha ([11]; Echinochloa): 98%; inhibition at 31 g/ha ([12]; Abutilon theophrasti): 0%; inhibition at 31 g/ha [19]: 30%; inhibition at 31 g/ha ([13]; Zea mays): 20%; inhibition at 31 g/ha ([14]; Oryza sativa): 20%; inhibition at 31 g/ha ([15]; Setaria viridis): 99%; inhibition at 31 g/ha ([16]; Triticum aestivum): 10%; inhibition at 31 g/ha ([17]; Glycine max): 0%; inhibition at 31 g/ha ([18]; Digitaria sanguinalis): 98%
3 | CC(=O)Oc1c(C)nn(C)c(=O)c1-c1cc(Oc2ncc(C(F)(F)F)cc2Br)ccc1C [Compound 2-115] | 100 | 20 | 98 | 98 | 78 | 98 | 83 | 95 | 0 | 100 | –
4 | CCc1nn(C)c(=O)c(-c2cc(Oc3ncc(C(F)(F)F)cc3Cl)ccc2C)c1OC(C)=O [1-137] | 100 | 0 | 93 | 95 | 85 | 80 | 85 | 75 | 15 | 93 | –
5 | Cc1ccc(Oc2cnc3cc(Cl)ccc3n2)cc1-c1c(OC(=O)CC2CCCCC2)c(C)nn(C)c1=O [Compound 3-80] | – | – | – | – | – | – | – | – | – | – | Growth inhibition rate (%) Barnyardgrass [1, 20]: 100%; Growth inhibition rate (%) Redroot pigweed [2, 20]: 0%; Growth inhibition rate (%) Italian ryegrass [3, 20]: 93%; Growth inhibition rate (%) Corn [4, 20]: 25%; Growth inhibition rate (%) Rice [5, 20]: 0%; Growth inhibition rate (%) Green foxtail [6, 20]: 99%; Growth inhibition rate (%) Wheat [7, 20]: 90%; Growth inhibition rate (%) Crabgrass [8, 20]: 95%; Growth inhibition rate (%) Soybean [9, 20]: 25%; Growth inhibition rate (%) Wild oat [10, 20]: 99%
6 | CCOC(=O)Oc1c(C)nn(C)c(=O)c1-c1cc(Oc2cnc3cc(Cl)ccc3n2)ccc1C [Compound 3-35] | 100 | 10 | 99 | 60 | 95 | 99 | 100 | 99 | 25 | 100 | –
7 | Cc1ccc(Oc2cnc3cc(Cl)ccc3n2)cc1-c1c(OC(=O)c2ccccc2)c(C)nn(C)c1=O [Compound 3-38] | 100 | 20 | 99 | 30 | 80 | 100 | 98 | 100 | 25 | 98 | –
8 | Cc1ccc(Oc2cnc3cc(Cl)ccc3n2)cc1-c1c(OC(=S)Oc2ccccc2)c(C)nn(C)c1=O [Compound 3-62] | – | – | – | – | – | – | – | – | – | – | Growth inhibition rate (%) Barnyardgrass [1, 20]: 100%; Growth inhibition rate (%) Redroot pigweed [2, 20]: 0%; Growth inhibition rate (%) Italian ryegrass [3, 20]: 93%; Growth inhibition rate (%) Corn [4, 20]: 60%; Growth inhibition rate (%) Rice [5, 20]: 0%; Growth inhibition rate (%) Green foxtail [6, 20]: 99%; Growth inhibition rate (%) Wheat [7, 20]: 90%; Growth inhibition rate (%) Crabgrass [8, 20]: 99%; Growth inhibition rate (%) Soybean [9, 20]: 20%; Growth inhibition rate (%) Wild oat [10, 20]: 99%
9 | Cc1ccc(Oc2nc3cc(Br)ccc3o2)cc1-c1c(O)cnn(C)c1=O [Compound 2-183] | 95 | 0 | 98 | 50 | 90 | 98 | 90 | 98 | 30 | 95 | –

From US10870638B2, “Pyridazinone compound or its salt, and herbicide containing it” (ISHIHARA SANGYO KAISHA, LTD., priority 2016, dated 2020)
